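Following 48 hours of exposure in 96-well plates, responses at five concentrations were used to interpolate endpoints linearly. TGI: concentration producing complete growth inhibition.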
Legend:
Assay in all cases: DTP human tumour cell line panel, 48 h
SK-MEL-28 melanoma = system: SK-MEL-28 melanoma
SK-MEL-2 melanoma = system: SK-MEL-2 melanoma
A498 renal = system: A498 renal
MOLT-4 leukemia = system: MOLT-4 leukemia
LXFL 529 NSCLC = system: LXFL 529 NSCLC
U251 CNS = system: U251 CNS
KM12 colon = system: KM12 colon
DMS 114 small cell lung = system: DMS 114 small cell lung
K-562 leukemia = system: K-562 leukemia
M14 melanoma = system: M14 melanoma
EKVX NSCLC = system: EKVX NSCLC
CCRF-CEM leukemia = system: CCRF-CEM leukemia
SF-539 CNS = system: SF-539 CNS
IGROV1 ovarian = system: IGROV1 ovarian
TK-10 renal = system: TK-10 renal
HOP-18 NSCLC = system: HOP-18 NSCLC
A549 NSCLC = system: A549 NSCLC
NCI-H226 lung = system: NCI-H226 lung
UO-31 renal = system: UO-31 renal
DLD-1 colon = system: DLD-1 colon
UACC-62 melanoma = system: UACC-62 melanoma
SF-268 CNS = system: SF-268 CNS
OVCAR-8 ovarian = system: OVCAR-8 ovarian
SR leukemia = system: SR leukemia
HCT-15 colon = system: HCT-15 colon
OVCAR-5 ovarian = system: OVCAR-5 ovarian
OVCAR-4 ovarian = system: OVCAR-4 ovarian
SNB-78 CNS = system: SNB-78 CNS
786-0 renal = system: 786-0 renal
CAKI-1 renal = system: CAKI-1 renal
SK-MEL-5 melanoma = system: SK-MEL-5 melanoma
ACHN renal = system: ACHN renal
RXF 393 renal = system: RXF 393 renal
DMS 273 small cell lung = system: DMS 273 small cell lung
SNB-19 CNS = system: SNB-19 CNS
HOP-92 NSCLC = system: HOP-92 NSCLC
KM20L2 colon = system: KM20L2 colon
HOP-62 NSCLC = system: HOP-62 NSCLC
OVCAR-3 ovarian = system: OVCAR-3 ovarian
NCI-H460 lung = system: NCI-H460 lung
HT29 colon = system: HT29 colon
MALME-3M melanoma = system: MALME-3M melanoma
SW-620 colon = system: SW-620 colon
HL-60(TB) leukemia = system: HL-60(TB) leukemia
M19-MEL melanoma = system: M19-MEL melanoma
XF 498 CNS = system: XF 498 CNS
RPMI-8226 leukemia = system: RPMI-8226 leukemia
NCI-H522 lung = system: NCI-H522 lung
HCC-2998 colon = system: HCC-2998 colon
SF-295 CNS = system: SF-295 CNS
NCI-H23 lung = system: NCI-H23 lung
COLO 205 colon = system: COLO 205 colon
SNB-75 CNS = system: SNB-75 CNS
LOX IMVI melanoma = system: LOX IMVI melanoma
SK-OV-3 ovarian = system: SK-OV-3 ovarian
HCT-116 colon = system: HCT-116 colon
UACC-257 melanoma = system: UACC-257 melanoma
SN12C renal = system: SN12C renal
RXF-631 renal = system: RXF-631 renal

In the case of `CN(C)CCN(C)CCC(=O)/C=C/c1ccccc1`, the TGI (SK-MEL-28 melanoma) is reported as 43.6 µM, the TGI (SK-MEL-2 melanoma) is reported as greater than 74.6 µM and the TGI (A498 renal) is reported as greater than 100 µM. For the same molecule, the TGI (MOLT-4 leukemia) was 27.2 µM, the TGI (LXFL 529 NSCLC) was 32.6 µM and the TGI (U251 CNS) was greater than 100 µM. It also gave a TGI (KM12 colon) of 52.5 µM, a TGI (DMS 114 small cell lung) greater than 66.3 µM and a TGI (K-562 leukemia) greater than 52.8 µM. The TGI (M14 melanoma) was 40.6 µM, the TGI (EKVX NSCLC) was greater than 93.8 µM and the TGI (CCRF-CEM leukemia) was 23 µM. The TGI (SF-539 CNS) was 39.6 µM, the TGI (IGROV1 ovarian) was greater than 68.2 µM and the TGI (TK-10 renal) was greater than 63.9 µM. The TGI (HOP-18 NSCLC) was greater than 100 µM, the TGI (A549 NSCLC) was greater than 100 µM and the TGI (NCI-H226 lung) was greater than 88.7 µM. The TGI (UO-31 renal) was greater than 100 µM, the TGI (DLD-1 colon) was 39.9 µM and the TGI (UACC-62 melanoma) was 71.4 µM. For the same molecule, the TGI (SF-268 CNS) was greater than 94.5 µM, the TGI (OVCAR-8 ovarian) was 47.1 µM and the TGI (SR leukemia) was 27.3 µM. The TGI (HCT-15 colon) was 50.1 µM, the TGI (OVCAR-5 ovarian) was greater than 100 µM and the TGI (OVCAR-4 ovarian) was greater than 61.2 µM. It also gave a TGI (SNB-78 CNS) greater than 77.6 µM, a TGI (786-0 renal) of 29.9 µM and a TGI (CAKI-1 renal) of 49.9 µM. It also gave a TGI (SK-MEL-5 melanoma) greater than 62.1 µM, a TGI (ACHN renal) greater than 69.9 µM and a TGI (RXF 393 renal) of 45.3 µM. It also gave a TGI (DMS 273 small cell lung) of 34 µM, a TGI (SNB-19 CNS) greater than 100 µM and a TGI (HOP-92 NSCLC) of 56.9 µM. The TGI (KM20L2 colon) was greater than 100 µM, the TGI (HOP-62 NSCLC) was greater than 100 µM and the TGI (OVCAR-3 ovarian) was greater than 61.4 µM. The TGI (NCI-H460 lung) was greater than 100 µM, the TGI (HT29 colon) was 41.2 µM and the TGI (MALME-3M melanoma) was 35.6 µM. It also gave a TGI (SW-620 colon) of 37.7 µM, a TGI (HL-60(TB) leukemia) of 53.5 µM and a TGI (M19-MEL melanoma) of 40.9 µM. It also gave a TGI (XF 498 CNS) of 49.6 µM, a TGI (RPMI-8226 leukemia) of 6.54 µM and a TGI (NCI-H522 lung) of 9.64 µM. For the same molecule, the TGI (HCC-2998 colon) was greater than 69.6 µM, the TGI (SF-295 CNS) was greater than 58.4 µM and the TGI (NCI-H23 lung) was greater than 61.1 µM. For the same molecule, the TGI (COLO 205 colon) was 36 µM, the TGI (SNB-75 CNS) was greater than 60.8 µM and the TGI (LOX IMVI melanoma) was greater than 100 µM. The TGI (SK-OV-3 ovarian) was greater than 100 µM, the TGI (HCT-116 colon) was 31.4 µM and the TGI (UACC-257 melanoma) was 51.4 µM. It also gave a TGI (SN12C renal) of 48.5 µM.
`COc1ccc(NC(=O)CC(=O)n2nc(-c3ccccc3)c(N=Nc3ccccc3C(=O)O)c2-c2ccccc2)cc1` gave a TGI (SK-MEL-28 melanoma) greater than 100 µM, a TGI (SK-MEL-2 melanoma) greater than 100 µM and a TGI (MOLT-4 leukemia) greater than 100 µM. The TGI (LXFL 529 NSCLC) was greater than 100 µM, the TGI (U251 CNS) was greater than 100 µM and the TGI (KM12 colon) was greater than 100 µM. The TGI (DMS 114 small cell lung) was greater than 100 µM, the TGI (K-562 leukemia) was greater than 100 µM and the TGI (EKVX NSCLC) was greater than 100 µM. It also gave a TGI (CCRF-CEM leukemia) greater than 100 µM, a TGI (SF-539 CNS) greater than 100 µM and a TGI (IGROV1 ovarian) greater than 100 µM. The TGI (TK-10 renal) was greater than 100 µM, the TGI (A549 NSCLC) was greater than 100 µM and the TGI (NCI-H226 lung) was greater than 100 µM. It also gave a TGI (RXF-631 renal) greater than 100 µM, a TGI (UO-31 renal) greater than 100 µM and a TGI (DLD-1 colon) greater than 100 µM. The TGI (UACC-62 melanoma) was greater than 100 µM, the TGI (SF-268 CNS) was greater than 100 µM and the TGI (OVCAR-8 ovarian) was 78.9 µM. For the same molecule, the TGI (SR leukemia) was greater than 100 µM, the TGI (HCT-15 colon) was greater than 100 µM and the TGI (OVCAR-5 ovarian) was greater than 100 µM. It also gave a TGI (OVCAR-4 ovarian) greater than 100 µM, a TGI (786-0 renal) of 70.8 µM and a TGI (CAKI-1 renal) greater than 100 µM. The TGI (SK-MEL-5 melanoma) was greater than 100 µM, the TGI (ACHN renal) was greater than 100 µM and the TGI (RXF 393 renal) was 90.7 µM. The TGI (DMS 273 small cell lung) was greater than 100 µM, the TGI (SNB-19 CNS) was greater than 100 µM and the TGI (HOP-92 NSCLC) was 41.4 µM. For the same molecule, the TGI (KM20L2 colon) was greater than 100 µM, the TGI (HOP-62 NSCLC) was greater than 100 µM and the TGI (OVCAR-3 ovarian) was greater than 100 µM. It also gave a TGI (SW-620 colon) greater than 100 µM, a TGI (M19-MEL melanoma) greater than 100 µM and a TGI (RPMI-8226 leukemia) greater than 100 µM. It also gave a TGI (NCI-H522 lung) greater than 100 µM, a TGI (HCC-2998 colon) greater than 100 µM and a TGI (SF-295 CNS) greater than 100 µM. The TGI (NCI-H23 lung) was greater than 100 µM, the TGI (COLO 205 colon) was greater than 100 µM and the TGI (LOX IMVI melanoma) was greater than 100 µM. For the same molecule, the TGI (SK-OV-3 ovarian) was 31.8 µM, the TGI (HCT-116 colon) was greater than 100 µM and the TGI (SN12C renal) was greater than 100 µM.
